# Test results as given in patent US20150306182A1, “FAT LOSS COMPOSITION” (priority 2012, published 2015).
# Several values for one entry are separate records, joined by “and”; a condition that tells them apart may be missing. Equal entries are not always repeated. Entries after “also recorded” stand apart in the source; their conditions may differ. No end group written: not given here.
# Experiments:
# [1] = Cloprostenol sodium alone in male and female subjects (Example 1); assay type: in vivo, human
# Description: Cloprostenol sodium was taken by eight male and two female subjects at a dosage of 120 micrograms for every 2501b (113 kg) body weight. The dosage was calculated pro rata based on the weight of the subject involved.
# With the female subjects the process was identical. However, the dosage was reduced to 15 μg per shot for menstrual reasons.
# [2] = minimal dose of 40 μg; cited from earlier work
# [3] = acute administration in humans, case reports; cited from earlier work
# adipose tissue = conditions: cited from earlier work
# ob/ob mice = conditions: cited from earlier work
# cell proliferation = conditions: unlike Human Growth Hormone; cited from earlier work
# [4] = system: isolated adipose tissue from obese humans; conditions: cited from earlier work
# [5] = system: isolated adipose tissue from obese rodents; conditions: cited from earlier work
# hGH receptor = target: T1, hGH receptor (Homo sapiens, UniProt P10912); conditions: unlike Human Growth Hormone; cited from earlier work
# T1 sequence (P10912 19-638): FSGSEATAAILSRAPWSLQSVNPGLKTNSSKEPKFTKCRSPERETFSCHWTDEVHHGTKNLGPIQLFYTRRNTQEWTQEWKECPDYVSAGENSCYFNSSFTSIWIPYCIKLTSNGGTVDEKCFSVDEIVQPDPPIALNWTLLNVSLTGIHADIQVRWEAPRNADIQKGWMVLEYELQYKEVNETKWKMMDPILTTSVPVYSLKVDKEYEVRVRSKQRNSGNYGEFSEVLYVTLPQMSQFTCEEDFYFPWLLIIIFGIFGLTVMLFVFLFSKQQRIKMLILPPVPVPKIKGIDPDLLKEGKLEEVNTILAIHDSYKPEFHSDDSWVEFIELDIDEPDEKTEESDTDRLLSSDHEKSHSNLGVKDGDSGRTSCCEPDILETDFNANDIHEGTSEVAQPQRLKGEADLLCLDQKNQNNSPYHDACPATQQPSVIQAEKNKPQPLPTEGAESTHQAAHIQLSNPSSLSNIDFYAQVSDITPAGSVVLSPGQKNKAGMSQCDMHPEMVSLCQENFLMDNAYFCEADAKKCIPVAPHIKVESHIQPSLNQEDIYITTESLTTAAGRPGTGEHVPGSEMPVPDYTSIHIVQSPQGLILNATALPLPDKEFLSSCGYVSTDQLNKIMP
# [6] = cited from earlier work
# [7] = Four week trial of amino acids 176-191 of human growth hormone alone (Example 2); assay type: in vivo; conditions: for Bowel Habits (per day): one value per test subject
# From the text: Ten subjects were given a daily subcutaneous dose of 2 International Units (IU) of amino acids 176-191 of human growth hormone for a four week trial period.
# [8] = ten subjects, daily subcutaneous 2 IU, four weeks
compound,measurement,setting,value
"O=C(O)CCC/C=C\CC1C(O)CC(O)C1/C=C/C(O)COc1cccc(Cl)c1 (centres unmarked) [Cloprostenol sodium, cloprostenol sodium]",Willingness to continue use,[1]; all recipients,None of the recipients wished to continue to use this product for more than three days
same,Side effects and willingness to continue in females,"[1]; females, 15 μg per shot",No female subjects wished to continue using this product due to severe stomach cramps
same,Side effects in males,"[1]; males, shots of 30 μg at a time",very severe stomach cramps and extensive bowel movements
same,Comments (stopping of use),"[1]; same dosing, one comment per test subject",Stopped after 2 days; also recorded: Stopped as cramp and pain; also recorded: Stopped after 1st day; also recorded: Stopped after 3 days
"O=C(O)CCC/C=C\C[C@@H]1C(/C=C/[C@@H](O)COc2cccc(Cl)c2)[C@H](O)C[C@@H]1O (stereo partly drawn) [Cloprostenol, (5Z)-7-[(1R,3R,5S)-2-[(E,3R)-4-(3-chlorophenoxy)-3-hydroxybut-1-enyl]-3,5-dihydroxycyclopentyl]hept-5-enoic acid]",Bowel evacuation after dosing,[2],within ten minutes users will have to evacuate their bowels
"O=[N+]([O-])c1ccc(O)c([N+](=O)[O-])c1 [DNP, 2,4-Dinitrophenol]",Lethal acute administration,[3],20 to 50 mg/kg
"HGH Fragment 177-191: Human growth hormone fragment of the cited studies; shares amino acid sequence with Human Growth Hormone (LRIVQCRSVEGSCGF; ends and bridges not checked; cysteine pairing not given here; UniProt P01241 203-217, looked up, fragment)",Lipolytic activity in adipose tissue,adipose tissue; dosage of 500 μg,increase lipolytic activity in adipose tissue
same,Impact on insulin sensitivity,adipose tissue; in vivo,no negative impact on insulin sensitivity
same,"Energy expenditure, glucose and fat oxidation",ob/ob mice,increasing energy expenditure and glucose and fat oxidation
same,Induction of cell proliferation,cell proliferation,nor does it induce cell proliferation
same,In vitro lipogenic activity,[4],decreased lipogenic activity
same,In vitro lipolytic activity,[4],increased in vitro lipolytic activity
same,In vitro lipogenic activity,[5],decreased lipogenic activity
same,In vitro lipolytic activity,[5],increased in vitro lipolytic activity
same,Competition for the hGH receptor,hGH receptor,does not compete for the hGH receptor
"YLRIVQCRSVEGSCGF (cysteine pairing not given here) [HGH fragment 176-191, freely available commercially]",Side effects,[6]; clinical trial and experimental users,No side effects have been reported
same,Stimulation of the metabolism of body fat,[6]; humans,highly successful at stimulating the metabolism of body fat in humans
same,Average overall weight loss (fat),"[6]; in three months, oral dosing",3 kg
same,Most effective daily dose,"[6]; lowest of 6 doses, oral, 3 months",1 mg
same,Weight loss relative to test subjects not taking the peptide,"[6]; three months, more than subjects not taking the peptide",300%
same,Body Fat,"[7]; Test subject 1, Week 4, start 17%",15%
same,Weight,"[7]; Test subject 1, Week 4, start 98 kg",(96 kg)
same,Weight,"[7]; Test subject 1, Week 4, start 217 lb",212 lb
same,Body Fat,"[7]; Test subject 2, Week 4, start 31%",28%
same,Weight,"[7]; Test subject 2, Week 4, start 92 kg",(89 kg)
same,Weight,"[7]; Test subject 2, Week 4, start 203 lb",196 lb
same,Body Fat,"[7]; Test subject 3, Week 4, start 18%",15%
same,Weight,"[7]; Test subject 3, Week 4, start 108 kg",(106 kg)
same,Weight,"[7]; Test subject 3, Week 4, start 238 lb",233 lb
same,Body Fat,"[7]; Test subject 4, Week 4, start 10%",10%
same,Weight,"[7]; Test subject 4, Week 4, start 92 kg",(92 kg)
same,Weight,"[7]; Test subject 4, Week 4, start 203 lb",203 lb
same,Body Fat,"[7]; Test subject 5, Week 4, start 25%",24%
same,Weight,"[7]; Test subject 5, Week 4, start 105 kg",(103 kg)
same,Weight,"[7]; Test subject 5, Week 4, start 231 lb",226 lb
same,Body Fat,"[7]; Test subject 6, Week 4, start 32%",30%
same,Weight,"[7]; Test subject 6, Week 4, start 68 kg",(67 kg)
same,Weight,"[7]; Test subject 6, Week 4, start 150 lb",147 lb
same,Body Fat,"[7]; Test subject 7, Week 4, start 30%",28%
same,Weight,"[7]; Test subject 7, Week 4, start 79 kg",(76 kg)
same,Weight,"[7]; Test subject 7, Week 4, start 173 lb",168 lb
same,Body Fat,"[7]; Test subject 8, Week 4, start 34%",30%
same,Weight,"[7]; Test subject 8, Week 4, start 108 kg",(103 kg)
same,Weight,"[7]; Test subject 8, Week 4, start 238 lb",226 lb
same,Body Fat,"[7]; Test subject 9, Week 4, start 10%",10%
same,Weight,"[7]; Test subject 9, Week 4, start 79 kg",(79 kg)
same,Weight,"[7]; Test subject 9, Week 4, start 175 lb",175 lb
same,Body Fat,"[7]; Test subject 10, Week 4, start 21%",18%
same,Weight,"[7]; Test subject 10, Week 4, start 86 kg",(83 kg)
same,Weight,"[7]; Test subject 10, Week 4, start 189 lb",182 lb
same,Bowel Habits (per day),"[7]; Week 1, daily subcutaneous 2 IU",2 per day and 1 per day
same,Bowel Habits (per day),"[7]; Week 2, daily subcutaneous 2 IU",2 per day and 1 per day
same,Bowel Habits (per day),"[7]; Week 3, daily subcutaneous 2 IU",1 per day and 2 per day
same,Bowel Habits (per day),"[7]; Week 4, daily subcutaneous 2 IU",1 per day and 2 per day
same,Completion of trial,[7]; [8],All subjects completed the four week trial
same,Reduction in body fat and weight loss,[7]; [8],no real reduction in body fat or meaningful weight loss
